From US6737383B1, “Herbicidal oxadiazolidines” (priority 1999, dated 2004)

What was measured:
bedstraw = experiment: Test B pre/postemergence bedstraw; type: in vivo, Galium aparine; conditions: Preemergence
Method in brief: (§1)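 Response is a visual 0-to-10 score relative to untreated plants, where 0 means no effect and 10 means complete control, taken twelve to sixteen days after application. Treatments went onto soil at planting and onto foliage of 1- to 4-leaf plants, using a surfactant-containing non-phytotoxic solvent.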

blackgrass = experiment: Test B pre/postemergence blackgrass; type: in vivo, Alopecurus myosuroides
Method in brief: as §1

surinam grass = experiment: Test B pre/postemergence surinam grass; type: in vivo, Brachiaria decumbens
Method in brief: as §1

cocklebur = experiment: Test B pre/postemergence cocklebur; type: in vivo, Xanthium strumarium
Method in brief: as §1

corn = experiment: Test B pre/postemergence corn; type: in vivo, Zea mays
Method in brief: as §1

crabgrass = experiment: Test B pre/postemergence crabgrass; type: in vivo, Digitaria sanguinalis
Method in brief: as §1

giant foxtail = experiment: Test B pre/postemergence giant foxtail; type: in vivo, Setaria faberii
Method in brief: as §1

pigweed = experiment: Test B pre/postemergence pigweed; type: in vivo, Amaranthus retroflexus
Method in brief: as §1

soybean = experiment: Test B pre/postemergence soybean; type: in vivo, Glycine max
Method in brief: as §1

sugar beet = experiment: Test B pre/postemergence sugar beet; type: in vivo, Beta vulgaris
Method in brief: as §1

velvetleaf = experiment: Test B pre/postemergence velvetleaf; type: in vivo, Abutilon theophrasti
Method in brief: as §1

wheat = experiment: Test B pre/postemergence wheat; type: in vivo, Triticum aestivum
Method in brief: as §1

wild oat = experiment: Test B pre/postemergence wild oat; type: in vivo, Avena fatua
Method in brief: as §1

purple nutsedge = experiment: Test B pre/postemergence purple nutsedge; type: in vivo, Cyperus rotundus
Method in brief: as §1

rice = experiment: Test B flood test rice; type: in vivo, Oryza sativa
Method in brief: (§2)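 Flood test on plants grown to the 2-leaf stage; treated plants kept in greenhouse twelve to sixteen days, then visually rated against controls on a 0 (no effect) to 10 (complete control) scale.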

duck salad = experiment: Test B flood test duck salad; type: in vivo, Heteranthera limosa
Method in brief: as §2

[1] = Postemergence, Rate 125 g/ha, scale 0 to 10, 0 is no effect, 10 is complete control
[2] = Postemergence, Rate 250 g/ha, scale 0 to 10, 0 is no effect, 10 is complete control
[3] = Postemergence, Rate 500 g/ha, scale of 0 to 10 where 0 is no effect and 10 is complete control
[4] = Preemergence, Rate 62 g/ha, scale 0 to 10 (0 no effect, 10 complete control)
[5] = Preemergence, Rate 125 g/ha, scale of 0 to 10 where 0 is no effect and 10 is complete control
[6] = Preemergence, Rate 250 g/ha, scale of 0 to 10 where 0 is no effect and 10 is complete control
[7] = Preemergence, Rate 500 g/ha, scale 0 to 10, 0 is no effect, 10 is complete control
[8] = Rate 62 g/ha, Postemergence, scale of 0 to 10 where 0 is no effect and 10 is complete control
[9] = Preemergence, Rate 250 g/ha, scale 0 to 10, 0 is no effect, 10 is complete control
[10] = Rate 62 g/ha, flood test species, Pre-emergence, visual evaluation after twelve to sixteen days
[11] = Rate 125 g/ha, under heading Pre-emergence, flood test species, visual evaluation after twelve to sixteen days
[12] = Rate 250 g/ha, Pre-emergence, flood-test species, scale 0 to 10, 0 is no effect, 10 is complete control
[13] = Rate 500 g/ha, Pre-emergence, flood test species, scale 0 to 10 (0 no effect, 10 complete control)

## Cc1nc(Cl)sc1C(C)n1c(=O)on(C(=O)N(c2ccccc2)C(C)C)c1=O (stereo not shown) [Compound 407]
bedstraw; Rate 62 g/ha, scale 0 to 10 (0 no effect, 10 complete control)
  Plant response rating, Bedstraw: 0
bedstraw; Rate 125 g/ha, scale of 0 to 10 where 0 is no effect and 10 is complete control
  Plant response rating, Bedstraw: 0
bedstraw; Rate 250 g/ha, scale of 0 to 10 where 0 is no effect and 10 is complete control
  Bedstraw plant response rating: 0
bedstraw; Rate 500 g/ha, scale 0 to 10, 0 is no effect, 10 is complete control
  Bedstraw plant response rating: 0
blackgrass; [1]
  Plant response rating, Blackgrass: 0
blackgrass; [2]
  Plant response rating, Blackgrass: 0
blackgrass; [3]
  Blackgrass plant response rating: 7
blackgrass; [4]
  Plant response rating, Blackgrass: 0
blackgrass; [5]
  Plant response rating, Blackgrass: 0
blackgrass; [6]
  Blackgrass plant response rating: 0
blackgrass; [7]
  Blackgrass plant response rating: 0
blackgrass; [8]
  Blackgrass plant response rating: 0
Surinam grass; [1]
  Plant response rating, B. signalgrass: 0
Surinam grass; [2]
  Plant response rating, B. signalgrass: 0
Surinam grass; [3]
  B. signalgrass plant response rating: 0
Surinam grass; [4]
  Plant response rating, B. signalgrass: 0
Surinam grass; [5]
  Plant response rating, B. signalgrass: 0
Surinam grass; [6]
  B. signalgrass plant response rating: 0
Surinam grass; Preemergence, Rate 500 g/ha, scale of 0 to 10 where 0 is no effect and 10 is complete control
  B. signalgrass plant response rating: 0
Surinam grass; [8]
  B. signalgrass plant response rating: 0
cocklebur; [1]
  Plant response rating, Cocklebur: 0
cocklebur; [2]
  Plant response rating, Cocklebur: 0
cocklebur; [3]
  Cocklebur plant response rating: 0
cocklebur; [4]
  Plant response rating, Cocklebur: 0
cocklebur; [5]
  Plant response rating, Cocklebur: 0
cocklebur; [9]
  Cocklebur plant response rating: 0
cocklebur; [7]
  Cocklebur plant response rating: 0
cocklebur; [8]
  Cocklebur plant response rating: 0
corn; [1]
  Plant response rating, Corn: 0
corn; [2]
  Plant response rating, Corn: 0
corn; [3]
  Corn plant response rating: 0
corn; [4]
  Plant response rating, Corn: 0
corn; [5]
  Plant response rating, Corn: 0
corn; [9]
  Corn plant response rating: 0
corn; [7]
  Corn plant response rating: 0
corn; [8]
  Corn plant response rating: 0
crabgrass; [1]
  Plant response rating, Crabgrass: 0
crabgrass; [2]
  Plant response rating, Crabgrass: 1
crabgrass; [3]
  Crabgrass plant response rating: 3
crabgrass; [4]
  Plant response rating, Crabgrass: 0
crabgrass; [5]
  Plant response rating, Crabgrass: 2
crabgrass; [9]
  Crabgrass plant response rating: 5
crabgrass; [7]
  Crabgrass plant response rating: 9
crabgrass; [8]
  Crabgrass plant response rating: 0
Giant foxtail; [1]
  Plant response rating, Giant foxtail: 0
Giant foxtail; [2]
  Plant response rating, Giant foxtail: 3
Giant foxtail; [3]
  Giant foxtail plant response rating: 8
Giant foxtail; [4]
  Plant response rating, Giant foxtail: 0
Giant foxtail; [5]
  Plant response rating, Giant foxtail: 6
Giant foxtail; [9]
  Giant foxtail plant response rating: 9
Giant foxtail; [7]
  Giant foxtail plant response rating: 10
Giant foxtail; [8]
  Giant foxtail plant response rating: 0
pigweed; [2]
  Plant response rating, Redroot pigweed: 0
pigweed; [3]
  Redroot pigweed plant response rating: 0
pigweed; [4]
  Plant response rating, Redroot pigweed: 0
pigweed; [5]
  Plant response rating, Redroot pigweed: 0
pigweed; [9]
  Redroot pigweed plant response rating: 0
pigweed; [7]
  Redroot pigweed plant response rating: 0
soybean; [2]
  Plant response rating, Soybean: 2
soybean; [3]
  Soybean plant response rating: 2
soybean; [4]
  Plant response rating, Soybean: 0
soybean; [5]
  Plant response rating, Soybean: 0
soybean; [9]
  Soybean plant response rating: 0
soybean; [7]
  Soybean plant response rating: 0
Sugar beet; [2]
  Plant response rating, Sugarbeets: 0
Sugar beet; [3]
  Sugarbeets plant response rating: 0
Sugar beet; [4]
  Plant response rating, Sugarbeets: 0
Sugar beet; [5]
  Plant response rating, Sugarbeets: 0
Sugar beet; [9]
  Sugarbeets plant response rating: 0
Sugar beet; [7]
  Sugarbeets plant response rating: 0
velvetleaf; [2]
  Plant response rating, Velvetleaf: 0
velvetleaf; [3]
  Velvetleaf plant response rating: 2
velvetleaf; [4]
  Plant response rating, Velvetleaf: 0
velvetleaf; [5]
  Plant response rating, Velvetleaf: 0
velvetleaf; [9]
  Velvetleaf plant response rating: 0
velvetleaf; [7]
  Velvetleaf plant response rating: 0
wheat; [3]
  Wheat plant response rating: 0
wheat; [4]
  Plant response rating, Wheat: 0
wheat; [5]
  Plant response rating, Wheat: 0
wheat; [9]
  Wheat plant response rating: 0
wheat; [7]
  Wheat plant response rating: 0
Wild oat; [3]
  Wild oats plant response rating: 0
Wild oat; [4]
  Plant response rating, Wild oats: 0
Wild oat; [5]
  Plant response rating, Wild oats: 0
Wild oat; [9]
  Wild oats plant response rating: 0
Wild oat; [7]
  Wild oats plant response rating: 0
Purple nutsedge; [2]
  Plant response rating, Nutsedge: 0
Purple nutsedge; [3]
  Nutsedge plant response rating: 0
Purple nutsedge; [4]
  Plant response rating, Nutsedge: 0
Purple nutsedge; [5]
  Plant response rating, Nutsedge: 0
Purple nutsedge; [9]
  Nutsedge plant response rating: 0
Purple nutsedge; [7]
  Nutsedge plant response rating: 0
rice; [10]
  Plant response rating, Rice (0 to 10 scale, 0 is no effect, 10 is complete control): 0
rice; [11]
  Rice plant response rating (0 to 10 scale, 0 is no effect, 10 is complete control): 0
rice; [12]
  Rice plant response rating: 0
rice; [13]
  Rice plant response rating: 0
Duck salad; [10]
  Plant response rating, Ducksalad (0 to 10 scale, 0 is no effect, 10 is complete control): 0
Duck salad; [11]
  Ducksalad plant response rating (0 to 10 scale, 0 is no effect, 10 is complete control): 0
Duck salad; [12]
  Ducksalad plant response rating: 0
Duck salad; [13]
  Ducksalad plant response rating: 0
